In one experiment the test system is Culexpipienspallens. The experiment in a line: Test Example 3: spray knockdown test on Culexpipienspallens imagoes. It counts as in vivo. The conditions noted are these: 0.25 h, oil solution 0.1% w/v, 0.5 ml sprayed, within 15 minutes, read-out: knockdown ratio of the test vermin within 15 minutes. The procedure:
A formulation containing each of the present amide compounds (1), (2), (4), (5), (6), (7), (8), (9), (10), (12), (13), (14), (15), (16), (18), (19), (21), (22), (24), (25), (26) and (27) prepared in accordance with Formulation Example 7 was diluted with an isopropyl alcohol/deodorized kerosine=1/9 mixed liquid so that the active ingredient concentration became 0.1% w/v, to prepare a drug solution for a test.
Ten imagoes of Culexpipienspallens were allowed to release in a polyethylene cup (bottom surface diameter 10.6 cm), and the cup was covered with a 16 mesh nylon gauze. The polyethylene cup was arranged on a bottom of a chamber for a test (bottom surface: 46 cm×46 cm, height: 70 cm). From a height of 30 cm from an upper surface of the polyethylene cup, 0.5 ml of the drug solution for a test was sprayed using a spray gun (spraying pressure 0.4 kg/cm^2). After spraying, the cup was immediately taken out from the chamber for a test, the number of knocked down vermin was counted for 15 minutes with time, and a knockdown ratio was obtained. The knockdown ratio was calculated by the following expression.
Knockdown ratio (%)=(number of knocked down vermin/number of test vermin)×100

The next experiment deals with Adoxophyesoranafasciata. The experiment in a line: Test Example 8: apple seedling spray test on first instar larvae of Adoxophyesoranafasciata. Format: in vivo. The conditions noted are these: first instar larvae of Adoxophyesoranafasciata on apple seedlings; 500 ppm spray, 20 ml; seven days after spraying. Here is the method:
A formulation of the present amide compound (9) prepared in accordance with Formulation Example 15 was diluted with water so that the active ingredient concentration became 500 ppm, to prepare a spray solution for a test. On the other hand, 20 ml of the spray solution for a test was spraying-treated on each of apple seedlings (28 days after seeding, tree height about 15 cm) planted in a plastic cup. After the drug solution which had spray-treated on the apple was air-dried to an extent that the drug solution was dried, about 30 first instar larvae of Adoxophyesoranafasciata were released. Seven days after spraying, the number of live vermin on an apple seedling was investigated, and a controlling value was obtained according to the following expression. Controlling value (%)={1−(Cb×Tai)/(Cai×Tb)}×100 In addition, letters in the expression indicate the following meanings. Cb: Number of vermin before treatment of non-treated section Cai: Number of vermin at observation of non-treated section Tb: Number of vermin before treatment of treated-section Tai: Number of vermin at observation of treated-section

Molecules are shown by their SMILES.

As for `O=C(NCC1CCOC1)C1=NOC(CCCCCOc2ccccc2)C1` (centres unmarked) [present amide compound (9), N-(tetrahydrofuran-3-ylmethyl)-5-(5-phenoxypentyl)-4,5-dihydroisoxazole-3-carboxamide], the pest or weed control at 0.1 % strength with Culexpipienspallens is not below 80%. The compound further displayed a controlling value in the experiment with Adoxophyesoranafasciata of 100%.

The values above are taken from patent publication US20170215424A1 (SUMITOMO CHEMICAL COMPANY, LIMITED, priority 2014, published 2017).
